Results reported in ChEMBL document CHEMBL3244420, “Pyrrole esters of tropanols and related structures as analgesics” (J Med Chem, 1977).
Active and inactive are the calls of the source. The rule behind the calls is not given here.

How the values were obtained:
Mus musculus [1] = assay: Analgesic activity in mouse at 20 mg/kg, sc by hot plate method; type: functional, organism-based; parameters: dose 20 mg/kg
Mus musculus [2] = assay: Analgesic activity in sc dosed mouse by hot plate method; type: functional
Mus musculus [3] = assay: Analgesic activity in sc dosed mouse by Nilsen method; type: functional
Mus musculus [4] = assay: Analgesic activity in mouse at 100 mg/kg, sc by hot plate method; type: functional, organism-based; parameters: dose 100 mg/kg
Mus musculus [5] = assay: Analgesic activity in mouse at 50 mg/kg, sc by hot plate method; type: functional, organism-based; parameters: dose 50 mg/kg
Rhesus monkey [6] = assay: Toxicity in nonwithdrawn monkey assessed as precipitation of abstinence at 5 mg/kg; type: organism-based, Macaca mulatta; parameters: dose 5 mg/kg; settings: in vivo
Rhesus monkey [7] = assay: Suppression of narcotic abstinence syndrome in monkey at 5 mg/kg administered as single dose; type: functional, organism-based; parameters: dose 5 mg/kg; settings: Macaca mulatta
Rhesus monkey [8] = assay: Toxicity in monkey assessed as morphine-like dependence liability; type: organism-based, Macaca mulatta; settings: in vivo
Rhesus monkey [9] = assay: Toxicity in monkey assessed as precipitation of abstinence at 3 to 24 mg/kg; type: organism-based, Macaca mulatta; parameters: dose 3-24 mg/kg; settings: in vivo
Rhesus monkey [10] = assay: Suppression of narcotic abstinence syndrome in monkey at 3 to 24 mg/kg; type: functional, organism-based; settings: Macaca mulatta

SMILES | ED50 (Mus musculus [2]) [mg/kg] | ED50 (Mus musculus [3]) [mg/kg] | also measured
Cc1c(C(=O)OC2CCN(C)CC2)c(C)n(C)c1C | – | – | Activity (Mus musculus [1]): Active
COc1ccc2c3c1O[C@H]1[C@@H](O)C=C[C@H]4[C@@H](C2)N(C)CC[C@@]341 [CODEINE] | 7.5 | 4.5 | –
Cc1[nH]c(C)c(C(=O)O[C@H]2C[C@H]3CC[C@@H](C2)N3C)c1C.O.O=C(O)C(F)(F)F | 21.3 | – | –
Cc1[nH]c(C)c(C(=O)OC2CCN(Cc3ccccc3)CC2)c1C.Cl.O | 6.3 | – | –
Cc1[nH]c(C)c(C(=O)OC2CCN(CCc3ccccc3)CC2)c1C | – | – | Activity (Mus musculus [1]): Active
CN1CC[C@]23c4c5ccc(O)c4O[C@H]2[C@@H](O)C=C[C@H]3[C@H]1C5 [MORPHINE] | 1.2 | 0.8 | –
Cc1[nH]c(C)c(C(=O)OC2CC(C)(C)NC(C)(C)C2)c1C | – | – | Activity (Mus musculus [4]): inactive
Cc1[nH]c(C)c(C(=O)O[C@@H]2C[C@H]3CC[C@@H](C2)N3C)c1C | – | – | Activity (Mus musculus [5]): Active
Cc1[nH]c(C)c(C(=O)OC2CCCN(C)C2)c1C (stereo unspecified) | – | – | Activity (Mus musculus [4]): inactive
Cc1[nH]c(C)c(C(=O)OC2CCN(C)CC2)c1C.O=C(O)C(F)(F)F | 4.9 | 7.1 | Activity (Rhesus monkey [6]): Non-toxic; Activity (Rhesus monkey [7]): inactive; Activity (Rhesus monkey [8]): Non-toxic
Cc1[nH]c(C)c(C(=O)OC2CCN(C)C2)c1C.Cl.O (stereo unspecified) | 64.3 | – | –
Cc1[nH]c(C)c(C(=O)O[C@@H]2[C@H]3O[C@H]4C[C@@H]2N(C)[C@H]3C4)c1C | 6 | 28.9 | Activity (Rhesus monkey [9]): Non-toxic; Activity (Rhesus monkey [10]): inactive
